Assays:
[1] = Rate of dissolution in H2O at 25° C. of rebaudioside A polymorph and amorphous forms; format: physicochemical
[2] = format: physicochemical
Protocol: A solution of rebaudioside A (>97% pure by HPLC ) was prepared in double distilled water (12.5 gm in 50 mL, 25% concentration) by stirring the mixture at 40° C. for 5 minutes. An amorphous form of rebaudioside A was formed by immediately using the clear solution for spray drying with the Lab-Plant spray drier SD-04 instrument (Lab-Plant Ltd., West Yorkshire, U.K.). The solution was fed through the feed pump into the nozzle atomizer which atomized it into a spray of droplets with the help of a constant flow of nitrogen/air. […] This dry powder (11-12 g, H2O6.74%) was discharged continuously from the drying chamber and was collected in a bottle.

[3] = Sweetness stated as sucrose equivalent; format: in vivo
[4] = Sensory evaluation of sweetness linger and sugar-like taste by expert panel; format: in vivo; design: key: 0=no sweetness linger; 1=very slight sweetness linger; 2=slight sweetness linger; 3=moderate sweetness linger; 4=moderately high sweetness linger; 5=high sweetness linger; conditions: for Sweetness linger: scale 0-5; for Sweetness Linger rating (defined for the protocol): scale anchors: sucrose, 500 ppm REBA control sample
Protocol: In a particular embodiment, a panel of assessors is used to measure the reduction of sweetness linger. Briefly described, a panel of assessors (generally 8 to 12 individuals) is trained to evaluate sweetness perception and measure sweetness at several time points from when the sample is initially taken into the mouth until 3 minutes after it has been expectorated. […] A decrease in score for a time point measured after the sample has cleared the mouth indicates there has been a reduction in sweetness perception.
The panel of assessors may be trained using procedures well known to those of ordinary skill in the art. In a particular embodiment, the panel of assessors may be trained using the Spectrum™ Descriptive Analysis Method (Meilgaard et al, Sensory Evaluation Techniques, 3rd edition Chapter 11). Desirably, the focus of training should be the recognition of and the measure of the basic tastes; specifically, sweet. In order to ensure accuracy and reproducibility of results, each assessor should repeat the measure of the reduction of sweetness linger about three to about five times per sample, taking at least a five minute break between each repetition and/or sample and rinsing well with water to clear the mouth.
Generally, the method of measuring sweetness comprises taking a 10 mL sample into the mouth, holding the sample in the mouth for 5 seconds and gently swirling the sample in the mouth, rating the sweetness intensity perceived at 5 seconds, expectorating the sample (without swallowing following expectorating the sample), rinsing with one mouthful of water (e.g., vigorously moving water in mouth as if with mouth wash) and expectorating the rinse water, rating the sweetness intensity perceived immediately upon expectorating the rinse water, waiting 45 seconds and, while wating those 45 seconds, identifying the time of maximum perceived sweetness intensity and rating the sweetness intensity at that time (moving the mouth normally and swallowing as needed), rating the sweetness intensity after another […], rating the sweetness intensity after another 60 seconds (cumulative 120 seconds after rinse), and rating the sweetness intensity after still another 60 seconds (cumulative 180 seconds after rinse), Between samples take a 5 minute break, rinsing well with water to clear the mouth.
Sensory evaluation of the samples prepared in Example Set G was carried out under the following protocol, similar to that described hereinabove. In this test protocol, none of the samples were swallowed. […] Immediately upon sensing maximal sweetness, the sample was expectorated, the mouth was rinsed with water and the rate of sweetness decay (“Sweetness Linger”) was measured, where attention was focused on the sweetness 3-4 min after the water rinse. […]

Structure (SMILES) | Rate of dissolution in H2O at 25° C. [1] | Sweetness Linger rating (defined for the protocol) [4] | further results
C=C1C[C@@]23CC[C@H]4[C@@](C)(CCC[C@@]4(C)C(=O)O[C@@H]4O[C@H](CO)[C@@H](O)[C@H](O)[C@H]4O)[C@@H]2CC[C@]1(O[C@@H]1O[C@H](CO)[C@@H](O)[C@H](O[C@@H]2O[C@H](CO)[C@@H](O)[C@H](O)[C@H]2O)[C@H]1O[C@@H]1O[C@H](CO)[C@@H](O)[C@H](O)[C@H]1O)C3 [Form 1, rebaudioside A] | < 0.2 %/60 minutes |  | 
C=C1C[C@@]23CC[C@H]4[C@@](C)(CCC[C@@]4(C)C(=O)O[C@@H]4O[C@H](CO)[C@@H](O)[C@H](O)[C@H]4O)[C@@H]2CC[C@]1(O[C@@H]1O[C@H](CO)[C@@H](O)[C@H](O[C@@H]2O[C@H](CO)[C@@H](O)[C@H](O)[C@H]2O)[C@H]1O[C@@H]1O[C@H](CO)[C@@H](O)[C@H](O)[C@H]1O)C3 [Form 2, rebaudioside A] | < 30 %/5 minutes |  | 
C=C1C[C@@]23CC[C@H]4[C@@](C)(CCC[C@@]4(C)C(=O)O[C@@H]4O[C@H](CO)[C@@H](O)[C@H](O)[C@H]4O)[C@@H]2CC[C@]1(O[C@@H]1O[C@H](CO)[C@@H](O)[C@H](O[C@@H]2O[C@H](CO)[C@@H](O)[C@H](O)[C@H]2O)[C@H]1O[C@@H]1O[C@H](CO)[C@@H](O)[C@H](O)[C@H]1O)C3 [Form 3, rebaudioside A] | > 30 %/5 minutes |  | 
C=C1C[C@@]23CC[C@H]4[C@@](C)(CCC[C@@]4(C)C(=O)O[C@@H]4O[C@H](CO)[C@@H](O)[C@H](O)[C@H]4O)[C@@H]2CC[C@]1(O[C@@H]1O[C@H](CO)[C@@H](O)[C@H](O[C@@H]2O[C@H](CO)[C@@H](O)[C@H](O)[C@H]2O)[C@H]1O[C@@H]1O[C@H](CO)[C@@H](O)[C@H](O)[C@H]1O)C3 [Form 4, rebaudioside A] | > 35 %/5 minutes |  | Solubility in water at room temperature [2]: > 35,0%
C=C1C[C@@]23CC[C@H]4[C@@](C)(CCC[C@@]4(C)C(=O)O[C@@H]4O[C@H](CO)[C@@H](O)[C@H](O)[C@H]4O)[C@@H]2CC[C@]1(O[C@@H]1O[C@H](CO)[C@@H](O)[C@H](O[C@@H]2O[C@H](CO)[C@@H](O)[C@H](O)[C@H]2O)[C@H]1O[C@@H]1O[C@H](CO)[C@@H](O)[C@H](O)[C@H]1O)C3 [REBA, rebaudioside A] |  | 5 | Sweetness equivalent to sucrose ([3]; 180 ppm rebaudioside A in beverage diluted 1:1 with rebaudioside A/citrate composition): 5 % sucrose; Sweetness equivalent to sucrose ([3]; 400 ppm REBA in citric acid/potassium citrate composition): 8 g sucrose; Sweetness linger ([4]; Example Set G: 400 ppm REBA in citric acid/potassium citrate composition equivalent to diet lemon-lime beverage, with additive, sugar control 8 g in 100 ml citrate buffer): 5; Sweetness linger ([4]; Example Set H: 500 ppm REBA (H41: 360 ppm) in carbon-treated water, phosphoric acid (75%) to pH 2.4-2.5, with additive, sugar control 10 g in 100 ml): 5
OC[C@H]1O[C@@](CO)(O[C@H]2O[C@H](CO)[C@@H](O)[C@H](O)[C@H]2O)[C@@H](O)[C@@H]1O [sucrose] |  | 0 | 
